From US9205141B2, “Immunomodulatory methods and systems for treatment and/or prevention of hypertension” (Cardio Vax, LLC, priority 2010, dated 2015)

Assays:
BMDCs = assay: Endocytosis of FITC-labeled p210 by DCs in vitro; type: cell-based, mice; conditions: FITC fluorescence in BMDCs
Text: Peptide loading on BMDCs was defined using p210 labeled with FITC (FITC conjugating kit from Pierce).

bone marrow derived DCs = assay: Cytolytic activity of CD8(+) T cells from immunized mice against dendritic cells in vitro; type: cell-based
Method: In Vitro Generation of BM-Derived dendritic cells (BMDCs) The method for generating BMDC with GM-CSF was adapted from previous publication with modification. (19) Briefly, bone marrow cells from femurs and tibiae of male apoE−/− mice were plated into 10 cm culture plates (Falcon) with 20 ml complete RPMI-1640 containing 10 ng/ml GM-CSF (R&D Systems) and 10 ng/ml IL-4 (Invitrogen). Cells were washed and fed on day 3 and day 5 by removing the old medium followed by replenishing with fresh culture medium with GM-CSF and IL-4. On day 8, the immature DC appeared as non-adherent cells under the microscope and harvested by vigorous pipetting and subcultured into new culture plates with 2×10^5 DCs in 1.5 ml medium.
CD8(+) T-cells were negatively isolated using a CD8 selection Dynabeads kit (Invitrogen) per manufacturer's protocol. The selected CD8(+) T-cells were then co-culture with DCs in a CD8:DC ratio of 3:1. A series of pilot studies has been performed to determine the optimal CD8:DC ratio for this assay. After co-culture for 4 hours, cells were collected and processed for flow cytometric determination of CD11c and 7-AAD by LSR II flow cytometer (BD Biosciences) and data was analyzed with Summit V4.3 software. Dendritic cell death without CD8(+) T-cells in the co-culture was used as baseline and percentage of specific lysis of cells was calculated using a method described previously. (20)
One week after the third immunization, mice were euthanized to collect spleen CD8^+ T cells. Bone-marrow derived DCs were differentiated from naïve apoE−/− mice and used as target cells. […]
Applicants therefore assessed the effect of the vaccine on cytotoxic activity of CD8^+ T cells against syngeneic bone marrow-derived DCs. […] Cells were collected and processed for flow cytometric determination of CD11c^+ and 7-AAD 4 hours later.^20 Dendritic cell death without CD8^+ T cells in the co-culture was used as baseline and percentage of specific lysis of cells was calculated using a method described previously.^20

[1] = system: naïve male apoE (−/−) recipient mice; assay: Adoptive transfer of cells from immunized donors to naive apoE (−/−) recipients; type: in vivo
Text: Adoptive transfer experiment Male apoE (−/−) mice on regular chow received subcutaneous immunization as described in previous paragraph and were sacrificed at 13 weeks of age as donors. Splenocytes from the same treatment group were pooled before cell isolation. Donor CD8(+) T-cells, CD4(+)CD25(+) T-cells or B-cells were isolated using Dynabeads FlowComp (Invitrogen) according to the manufacturer's protocols. CD4(+) T-cells were negatively selected from the splenocytes followed by positive selection of CD4(+)CD25(+) cells. B cells were negatively isolated whereas CD8(+) T-cells were positively isolated first and released from beads. The purity of pooled CD8(+) T-cells, CD4(+)CD25(+) T-cells and B-cells was 90%, 80% and 70%, respectively. The isolated CD8(+) T-cells (1×10^6 cells/mouse), CD4(+)CD25(+) T-cells (1×10^5 or 3×10^5 cells/mouse) or B-cells (2×10^7 cells/mouse) were then adoptively transferred to naïve male apoE (−/−) recipient mice at 6-7 weeks of age via tail vein injection. In the published literatures of vascular biology, the number of adoptively transferred lymphocytes varied greatly. For B-cells transfer, the number of 2×10^7 cells/mouse was chosen based on two prior reports. (11),(12) For CD4(+)CD25(+) T-cells transfer, the number of cells transferred ranged from 5×10^4 cells/mouse to 1×10^6 cells/mouse in the published literature. […]

[2] = system: AngII-infused male apoE KO mice; assay: Blood pressure and heart rate in angiotensin II-infused apoE KO mice after P210 immunization; type: in vivo; conditions: apoE KO mice immunized s.c. 100 μg at 7, 10, 12 weeks; AngII 1000 ng/Kg/min; 4 weeks after pump implantation
Method: Saline was delivered to the control group.
Angiotensin II infusion via implanted osmotic pump was started at 10 weeks of age. Mice were euthanized at 14 weeks of age. Blood pressure was measured throughout the duration of experiment.

male apoE (−/−) mice = assay: Athero-protective effect of p210 immunization in apoE (−/−) mice on high cholesterol chow; type: in vivo; conditions: 100 μg dose compared to 25 or 50 μg dose
Text: Selection of peptides and their preparation for immunization The establishment and screening of human apoB-100 peptides has been reported (8). Based on Applicants pilot experiments and prior reports, (9),(10) Applicants selected peptide 210 (p210, KTTKQ SFDLS VKAQY KKNKH—SEQ ID NO: 210) as a candidate immunogen. Native p210 peptide (Euro-Diagnostica AB, Sweden) was conjugated to cationic bovine serum albumin (cBSA) as carrier using a method described previously. (3),(4) Alum was used as adjuvant and mixed with peptide/cBSA conjugate with 1:1 ratio in volume. Peptide conjugation and mixing with alum were prepared fresh prior to each immunization.
Immunization protocols Male apoE (−/−) mice (Jackson Laboratories) were housed in an animal facility accredited by the American Association of Accreditation of Laboratory Animal Care and kept on a 12-hour day/night cycle with unrestricted access to water and food. The Institutional Animal Care and Use Committee of Cedars-Sinai Medical Center approved the experimental protocols. […] Mice, maintained on normal chow diet, received subcutaneous primary immunization in the dorsal area between scapulas at 6-7 weeks of age, followed by a booster at 9 and 12 weeks of age. One week after last booster, diet was switched to high cholesterol chow (TD 88137, Harlan-Teklad) and continued until euthanasia at the age of 25 weeks. […]

[3] = system: CD8+CD25− T cells co-cultured with DCs; assay: Presentation of p210 by DCs to CD8+CD25− T cells in co-culture; type: cell-based; conditions: 48 hours, DCs treated with LPS, compared to untreated or LPS only treated co-cultures
Text: The p210 peptide contains the proteoglycan binding site of the apoB-100 molecule. This peptide is a cell-penetrating peptide capable of efficiently delivering antigens for cross-presentation to cytotoxic CD8^+ T cells.^53 Applicants therefore assessed activation of CD8^+CD25^− T cells co-cultured with DCs loaded with p210 and matured with LPS.

[4] = CD8(+) T-cells from immunized mice vs PBS or cBSA/alum

KTTKQ SFDLS VKAQY KKNKH (KTTKQSFDLSVKAQYKKNKH) [p210, amino acids 3136-3155 of human apoB-100]
uptake of FITC-labeled p210 by dendritic cells (BMDCs): endocytosed by DCs
granzyme B expression of CD8(+) T-cells (bone marrow derived DCs; [4]): increased granzyme B expression
perforin level of CD8(+) T-cells (bone marrow derived DCs; [4]): no difference in perforin level
cytolytic activity after depletion of CD25+ cells (bone marrow derived DCs; CD8+ T cells depleted of CD25+ cells): abrogated the increased cytolytic activity
lesion size in recipients of CD4(+)CD25(+) T-cells ([1]; 1×10^5 cells/mouse): no difference in lesion size
lesion size in recipients of CD4(+)CD25(+) T-cells ([1]; 3×10^5 cells/mouse): did not reduce lesion sizes
reduction in blood pressure [2]: about 11%
athero-reduction by dose (pilot experiment) (male apoE (−/−) mice): optimum athero-reduction
activated CD8+CD25+ T cells after co-culture with p210-loaded DCs [3]: significantly increased CD8^+CD25^+ T cells
